This note sets out measurements from patent publication US8299059B2, “Crystalline compound and a process for its preparation” (Eli Lilly and Company, priority 2009, dated 2012).

Structures are written as SMILES.

What all share (format): physicochemical
A short description of series [1]: Determination of particle size distribution by laser diffraction. Particulars: for x10 / x90: cumulative volume distribution (undersized); for x50: median particle size. On the procedure:
Laser diffraction particle size analysis is employed to determine the x10, x50 and x90 values. The procedure uses Fraunhofer laser diffraction theory to calculate the particle size distribution. The analysis is performed with a Malvern Mastersizer 2000 equipped with a Hydro 2000S wet module. A filtered (0.22 μm) solution composed of 0.35% (v/v) sorbitan monooleate (SPAN® 80) in hexanes and saturated with semagacestat is used as the dispersant. The parameters used in the analysis are as follows: sample refractive index—1.555, sample absorption—0.1, dispersant refractive index—1.37, result calculation model—General purpose, normal sensitivity, sample measurement time—12 seconds, background measurement time—12 seconds, and stirrer/pump speed—2700 rpm. A dry sample is added to the Hydro 2000S wet module with sonication on at 100%, until the obscuration is between 10 and 20%. The sample is sonicated for 12 s and stirred for a total of 2 min (including sonication) prior to the analysis. Two separate assays are typically run; the average values are reported.

The nature of series [2]: Determination of specific surface area (BET isotherm, nitrogen). On the procedure:
Specific surface area is determined from BET isotherm measurements using nitrogen as the absorbed gas.

Series [3] is described as follows: Determination of particle flowability (Schulze shear cell tester). Particulars: flow factor coefficient, pre-consolidation pressure 2000 Pa. The protocol: Particle flowability is characterized using a Schulze shear cell tester with a pre-consolidation pressure of 2000 Pa. The powder sample is contained in an annular shear cell. A vertically acting force is applied to the lid of the flow cell allowing an adjustable normal stress to be applied. The shear cell is slowly rotated and the torque necessary to prevent the cover from rotating is recorded. The measured shear stress that is recorded is the shear stress required for the powder to move or flow against itself. From a plot of the shear stress versus normal force, the flowability or FFC is determined

For the compound `CC(C)[C@H](O)C(=O)N[C@@H](C)C(=O)N[C@@H]1C(=O)N(C)CCc2ccccc21` [Example 1, Crystalline (2S)-2-hydroxy-3-methyl-N-[(1S)-1-methyl-2-oxo-2-[[(1S)-2,3,4,5-tetrahydro-3-methyl-2-oxo-1H-3-benzazepin-1-yl]amino]ethyl]-butanamide anhydrate Form II], in series [1], the x10 worked out at 14 μm, the x90 was determined as 128 μm and the x50 was 59 μm. In addition, the SSA in series [2] was determined as 0.4 m^2/g. In addition, the FFC in series [3] is reported as 3.8.
On the same counts, the results for `CC(C)[C@H](O)C(=O)N[C@@H](C)C(=O)N[C@@H]1C(=O)N(C)CCc2ccccc21` [Method 2, Crystalline (2S)-2-hydroxy-3-methyl-N-[(1S)-1-methyl-2-oxo-2-[[(1S)-2,3,4,5-tetrahydro-3-methyl-2-oxo-1H-3-benzazepin-1-yl]amino]ethyl]-butanamide anhydrate Form II] are 3.5 μm, 54 μm, 17 μm, 1.1 m^2/g and 2.0.
